The test system of assay [1] is MerCreMer/ZEG (M/Z) mice. Briefly: Cardiomyocyte replenishment after myocardial infarction, GFP+ / β-Gal+ cardiomyocyte counting. The assay is classed as in vivo, mouse. How it is done:
All experiments involving animals were conducted in accordance with the Guide for the Use and Care of Laboratory Animals, and all animal protocols have been approved by National Cheng Kung University. Sca-1^− GFP, B6.Cg-Tg(Ly6a-GFP)G5Dzk/J and EP2^−/−, B6.129-Ptger2^tm/Brey/J mice were obtained from Jackson Laboratory. The double transgenic MerCreMer/ZEG (M/Z) mice were generated by crossbreeding MerCreMer and Z/EG mice (Jackson Laboratory), which have C57BL/6SV129 and C57BL/6J (N7) background strains, respectively. The MerCreMer mice contain a tamoxifen-inducible Cre recombinase fusion protein driven by the cardiomyocyte-specific α-MHC promoter. In Z/EG mice, GFP replace constitutive β-Gal expression after the removal of a LoxP-flanked stop sequence by Cre.
M/Z mice were subjected to experimental myocardial infarction (MI) one month after the last tamoxifen injection. MI was generated by ligating the left anterior descending coronary artery at 2-3 mm distal to the left atrial appendage. For cell transplantation experiments, intramyocardial injections were performed immediately after coronary ligation. A total of 6×10^5 cardiac Sca-1^+ cells were injected per mouse in two divided injections (5 μl/injection). For BrdU labeling, the mice were subcutaneously implanted with osmotic minipump (Alzet) at the time of surgery and 40 μg/μl of BrdU (Sigma) was administrated. For immunohistological studies, mice were sacrificed and the hearts were harvested at different time points following experimental MI surgery. Cardiac performances were assessed by echocardiography at 28 and 56 days after operation using Vevo 770 (Visualsonics, Toronto, Canada).
(§1) To induce Cre recombination to achieve GFP labeling of cardiomyocytes, tamoxifen (Sigma) was dissolved in sunflower oil (Sigma) at a concentration of 5 mg/ml. The tamoxifen solution was injected intraperitoneally into M/Z mice daily at a dosage of 40 μg per 1 g body weight for 14 days, and the same dosage was injected twice daily for short-term labeling using methods known in the art (Laugwitz, K.-L. et al. Nature 433, 647-653 (2005)). All experimental conditions were optimized prior to the PGE2, indomethacin and TGF-β Type I Receptor Kinase Inhibitor II (ALK5 Inhibitor II, ALK5i, Merck) treatments. The mice treated with PGE2 or PGI2 (Vegiopoulos, A. et al. Science 328, 1158-1161 (2010)) (both from Sigma) were injected intraperitoneally with 3.33 ng of drug per 1 g of body weight dissolved in absolute ethanol twice daily. For the indomethacin treatment, mice were fed with water containing indomethacin (Sigma, 15 μg/ml) for different periods of time. The indomethacin-containing water was changed every 3 days. The mice subjected to the celecoxib (Lyons, T. R. et al. Nat. Med. 17, 1109-1115 (2011)) (Sigma) treatment were injected intraperitoneally with 5 μg of drug per 1 g of body weight daily. For ALK5i treatment, aged mice were injected intraperitoneally once per day with 1 μg of drug per 1 g of body weight one day before surgery and continuously until day 10 post-MI. Celecoxib and ALK5i were dissolved in ethanol and DMSO, respectively.
All of the cellular quantifications were performed double-blindly to minimize personal bias. […] For the cardiomyocyte cell counts, 3 sections from each heart, and 2 infarction border zones and 1 remote area from each section were analyzed at a magnification of 200× by light microscopy. Cells with visible sarcomere structures were analyzed, and the average number of cells counted was 171.8±5.8 per photo image. For the small cardiac cell counts, more than five sections from each heart were analyzed at a magnification of 400× using fluorescence microscopy. The average number of cells counted was 17.01±0.99 per photo image, and more than one hundred and fifty cells were analyzed from each heart. As quantification result is the averaged values calculated from the pictures taken from six border zone sections per heart, personal variation has been minimized. […]

Assay [2] concerns Sca-1. Briefly: Quantitative RT-PCR of Sca-1 in infarct zone of MI heart. Type of assay: in vivo, mouse. Conditions: young mice, day 3 post-MI. The procedure: as §1
The total RNA isolated from the ischemic region or remote area of MI hearts was reverse transcribed using the SuperScript III (Invitrogen) system according to the manufacturer's protocol. For quantitative PCR, the SYBR Green reagent (Maestrogen) was used according to the manufacturer's protocol. The analysis of relative gene expression was performed using the 2̂[−delta delta Ct] method and sequence-specific primers designed for semi-quantitative PCR and real-time RT-PCR (FIG. 11).

This note sets out measurements from patent US20130331389A1, “Methods and Compositions for Cardiomyocyte Replenishment by Endogenous and Progenitor Stem Cells” (NATIONAL CHENG KUNG UNIVERSITY, priority 2012, published 2013).

With `CCCCC[C@H](O)/C=C/[C@@H]1[C@H]2C/C(=C/CCCC(=O)O)O[C@H]2C[C@H]1O` [PGI2, prostaglandin I2], in assay [1] (border zone, 3.33 ng per 1 g i.p. twice daily for 14 days), the “significant increase of cardiomyocyte replenishment compared to the vehicle control (in words)” value is given as “not”.
As for `COc1ccc2c(c1)c(CC(=O)O)c(C)n2C(=O)c1ccc(Cl)cc1` [indomethacin], the Sca-1 expression result in assay [2] is “repressed”. Also, the “stem cell-dependent cardiomyocyte reconstitution” value in assay [1] (administered more than 5 days post-MI (Indo 9 D)) is reported as “no significant effect”. Further, the “drop of cardiomyocyte restoration rate” value in assay [1] (border zone, Indo 14D (1 day before and 14 days after MI), 15 μg/ml in water, P<0.05) is recorded as “about 10%”. Moreover, the cardiomyocyte replenishment result in assay [1] (border zone, given during the first 5 days post-MI (Indo 5 D), P<0.05) was “sufficient to impair cardiomyocyte replenishment”. Besides, the MI-induced cardiomyocyte replenishment result in assay [1] (remote area, indomethacin in water) was “abrogated”.
`Cc1cccc(-c2[nH]ncc2-c2ccc3ncccc3n2)n1` [ALK5i]: the “cardiomyocyte replenishment in comparison with the vehicle control group” value in assay [1] (aged mice, 1 μg per 1 g i.p. once per day from one day before surgery until day 10 post-MI, day 14 post-MI, P<0.01) is given as “restored cardiomyocyte replenishment”.
